# From patent US7378401B2, “Use of Fosfluridine Tidoxil (FT) for the treatment of intraepithelial proliferative diseases” (Heidelberg Pharma GmbH, priority 2006, dated 2008)
# Entries after “also recorded” stand apart in the source; their conditions may differ. Where two headings read alike, the source gives them in different places.
# Legend:
# [1] = after intravenous administration; cited from earlier work
# bone marrow cells = experiment: bone marrow toxicity after intravenous doses; type: in vivo; details: single and repeated intravenous doses
# [2] = in vivo
# Text: One of the drawbacks of using intravenously administered 5-Fluorouracil is bone marrow suppression, expressed clinically by increased susceptibility to infections and fatigue.
# actinic keratosis = experiment: oral Fosfluridine Tidoxil in patients with advanced actinic keratosis; type: in vivo, human
# Method: A person was suffering from an advanced actinic keratosis since more than 3 years. In this time they received different types of topical treatment, such as Solaraze (3% Diclofenac) or Aldara (Imiquimod). Thereafter they were treated with 50 mg of Fosfluridine Tidoxil (1 capsule). The patient received 3 cycles each cycle consisting of a once daily oral administration over 7 days followed by a treatment free week (two weeks per cycle).
# A patient was diagnosed to have an actinic keratosis 15 years before and was now in an advanced stage. In the years before taking Fosfluridine Tidoxil they were, in essence, treated with Solaraze. Since the therapeutic benefit appears to be limited they then received 100 mg of oral Fosfluridine Tidoxil (2 capsules of 50 mg) over 3 cycles (as mentioned above).
# A person with a first diagnosis of Actinic keratosis 1.6 years before use of Fosfluridine Tidoxil was treated topically, however, eventually without therapeutic benefit. […] They then received 100 mg of oral Fosfluridine Tidoxil (2 capsules of 50 mg) over 3 cycles (as described above). […] This patient was not treated over the next four months with any topical.
# A patient suffered from Actinic keratosis for more than 7 years and was now in an advanced stage. […] […], then, received 100 mg of oral Fosfluridine Tidoxil (2 capsules of 50 mg) over 3 cycles (as de-scribed above). […] In the next 2 month this patient was not treated with any topical.
# [3] = test system: primary human keratinocytes
# SCLC xenograft = details: mice, dose-dependent, maximum inhibition
# [4] = mice, up to highest single p.o. dose tested of 3.8 g/kg
# CFU-E and CFU-GM = details: doses manifold higher than highly toxic doses of FUrd
# [5] = oral administration, mice
# [6] = oral administration, rhesus monkeys
# [7] = man
Structure (SMILES),drug eliminated within the first hour [1],bone marrow toxicity (bone marrow cells),distribution to the bone marrow [2],"reduction of lesion count (actinic keratosis; 50 mg oral once daily, 3 cycles (7 days on, 7 days off), plus one month of observation) [%]","histological stage of lesions (actinic keratosis; 50 mg oral once daily, 3 cycles, plus one month of observation, most severe area)","histological stage of lesions (actinic keratosis; 100 mg oral once daily, 3 cycles, plus one month of observation, listed as Fosfluridine Tidoxil)","outcome in follow-up without any topical treatment (actinic keratosis; after 100 mg oral, 3 cycles, next 2-4 months without topical, listed as Fosfluridine Tidoxil)",effectiveness in proliferating compared to non-proliferating keratinocytes [3],inhibition of SCLC xenograft tumor growth (SCLC xenograft),mortality in acute tolerability study [4],suppression of in vitro colony formation of CFU-E and CFU-GM (CFU-E and CFU-GM),plasma half-life [5] [h],plasma half-life [6] [h],plasma concentrations of 5-FU and 5-FUrd after administration of FT [7],plasma half-life ([7]; oral administration) [h]
"O=c1[nH]cc(F)c(=O)[nH]1 [Example 5-FU, 5-Fluorouracil]",Over 90%,,,,,,,,,,,,,,
"CCCCCCCCCCCCSCC(COP(=O)([O-])OCC1OC(n2cc(F)c(=O)[nH]c2=O)C(O)C1O)OCCCCCCCCCC.[Na+] (stereo not shown) [FT, (5-fluorouridine)-5′-phosphoric acid (3-dodecylmercapto-2-decyloxy)propylester, Na-salt]",,did not result in bone marrow toxicity,not distributed to the bone marrow,34,reduced from stage 3 to stage 1,decreased from class 2 to class 1; also recorded: reduced from class 3 to class 2; also recorded: reduced from 3 to 1,all actinic keratoses have disappeared; also recorded: all actinic lesions have disappeared,far more effective in proliferating primary human keratinocytes,up to 82%,no animal died,did not suppress,4 to 5,8 to 10,negligible,> 20
"O=c1[nH]c(=O)n([C@@H]2O[C@H](CO)[C@@H](O)[C@H]2O)cc1F [Example 5-FUrd, 5-Fluorouridine, reference compound]",,dose-dependently suppressed bone marrow cells,,,,,,,,,,,,,
